From patent US20240197761A1, “FUCOSYLATION AND IMMUNE MODULATION IN CANCER” (H. LEE MOFFITT CANCER CENTER AND RESEARCH INSTITUTE, INC., priority 2021, published 2024)
“Also recorded” adds a separate entry of the source.

Assays:
BM-derived MDSCs = test: NO production of BM-derived MDSCs (Greiss assay); format: cell-based, Balb/C mice; details: 250 uM L-fuc prior, during and/or after GM/G-CSF stimulation
Method: (§1) Tlhe myeloid cells, which were stimulated to imlmuno, suppressive MDSCs using GM/G-CSF, were divided into 3 treatment groups: (i) Treatment±250 uM L-fuc prior, duri ng, and after GM/G-CSF stimulation. Treatment±250 uM L-fuc during and after GM/G-CSF stimulation. (ii) Treatment±250 uM L-fuc only after GM/G-CSF stimulation. Greiss assay timepoints reier to hours after initial dose of L-fuc regardless of when cells were treated, L-fuc abrogated their ability to glenerate NO. […] We subsequently co-cultured the modulated MDSCs wilh T cells, which were then activated or not with CD3/CD28 beads and measured for IFNψ production. *. p •<0.05

SM1 tumors = test: Immunodepletion mouse model (CD4+ or CD8+ T cell depletion), SM1; format: in vivo, C57BL6 mice; details: CD4+ but not CD8+T cell depletion
Excerpt: Total TILs were gated first to single cells (based on forward scatter height vs width, followed by side scatter height vs. width). Live cells were gated from the Zombie negative population from the population above. TILs were gated based on splenocyte size from a control spleen. Individual immune subpopulations were sub-gated from the total TIL population using the following staining criteria: CD3+ for CD3+ T cells; CD3+/CD4+/CD8− for CD4+T cells; CD3+/CD4−/CD8+ for CD8+ T cells, CD11c+/CD11b+ for DCs; either NK1.1 (for C57/BL6 mice) or DX5 (for C3H/HeJ) for NK cells; CD11b+/GR1+ for MDSC-like cells; and F4/80+ for macrophages. Single-cell suspensions from tumor and spleen tissue were stained with Live/Dead Zombie NIR (Biolegend, (San Diego, CA)) at 1:1,000 in PBS for 20 min. Cell suspensions were spun down and stained with the following with antibodies at 0.5 μg/ml per antibody: APC anti-mouse CD3, Pacific Blue anti-mouse CD4, BV785 anti-mouse CD8, PerCP anti-mouse CD25, FITC anti-mouse F4/80, PeCy7 anti-mouse CD11c, PE anti-mouse NK1.1 or PE anti-mouse DX5, and PerCP-Cy5.5 anti-mouse CD11 b. After staining, the cells were washed and fixed (2% formaldehyde), followed by another wash and flow cytometric analysis. The compensation controls were prepared using 0.5 μg/mL of each antibody with UltraComp eBeads, (ThermoFisher Scientific (Waltham, MA)). […]

TUBO (mouse BC) = test: TUBO breast cancer growth and TILs in immunocompetent mice, L-fuc dose escalation; format: in vivo, Balb/C mice; details: for TUBO tumor growth: immunocompetent Balb/C mice, L-fuc dose escalation (FIG. 3B)
SW1 tumors = test: Immunodepletion mouse model (CD4+ or CD8+ T cell depletion), SW1; format: in vivo, C3H/HeN mice
Excerpt: Total TILs were gated first to single cells (based on forward scatter height vs width, followed by side scatter height vs. width). Live cells were gated from the Zombie negative population from the population above. TILs were gated based on splenocyte size from a control spleen. Individual immune subpopulations were sub-gated from the total TIL population using the following staining criteria: CD3+ for CD3+ T cells; CD3+/CD4+/CD8− for CD4+T cells; CD3+/CD4−/CD8+ for CD8+ T cells, CD11c+/CD11b+ for DCs; either NK1.1 (for C57/BL6 mice) or DX5 (for C3H/HeJ) for NK cells; CD11b+/GR1+ for MDSC-like cells; and F4/80+ for macrophages. Single-cell suspensions from tumor and spleen tissue were stained with Live/Dead Zombie NIR (Biolegend, (San Diego, CA)) at 1:1,000 in PBS for 20 min. Cell suspensions were spun down and stained with the following with antibodies at 0.5 μg/ml per antibody: APC anti-mouse CD3, Pacific Blue anti-mouse CD4, BV785 anti-mouse CD8, PerCP anti-mouse CD25, FITC anti-mouse F4/80, PeCy7 anti-mouse CD11c, PE anti-mouse NK1.1 or PE anti-mouse DX5, and PerCP-Cy5.5 anti-mouse CD11 b. After staining, the cells were washed and fixed (2% formaldehyde), followed by another wash and flow cytometric analysis. The compensation controls were prepared using 0.5 μg/mL of each antibody with UltraComp eBeads, (ThermoFisher Scientific (Waltham, MA)). All samples were subject to flow cytometric profiling using a LSR Flow Cytometer (BD Biosciences (San Jose, CA)) and analysis as indicated using FlowJo software (BD Biosciences (San Jose, CA)).
All animals were housed at the Vincent A. Stabile Research building animal facility at H. Lee Moffitt Cancer Center & Research Institute, which is fully accredited by the Association for Assessment and Accreditation of Laboratory Animal Care International (AAALAC, #434), and are managed in accordance with the Guide for the Care and Use of Laboratory Animals (“The Guide”), the Animal Welfare Regulations Title 9 Code of Federal Regulations Subchapter A, “Animal Welfare”, Parts 1-3 (AWR), the Public Health Service Policy on Humane Care and Use of Laboratory Animals (PHS Policy), and by the USF Institutional Animal Care and Use Committee's Principles and Procedures of Animal Care and Use (IACUC Principles). The experiments and protocols detailed in this study received institutional approval by the Moffitt IACUC (RIS00001625). Four-to-six-week-old female C3H/HeN and male C57BL6 mice were purchased from Charles Rivers Laboratories for the indicated experiments. Four-to-six-week-old male NSG mice from the Lau laboratory breeding colony were used for the indicated experiments. […] Mouse tumor volumes were measured using length, width and depth divided by 2. […]

BM-myeloid cells = test: Expression of MDSC biology-related genes in BM-myeloid cells; format: cell-based, mouse; details: 24 or 72 hours after initial L-fuc treatment
Method: The expression of key MDSC biology-related genes was measured at 24 or 72 hours after in initial L-fuc treatment of the cells. Reductions in ARGI, PARP, and CHOP expression (red boxes; the expression of these genes are known to be required for MDSC immunosuppression. Increase in STAT1 is shown in green.
Next, we investigated the effect of L-fuc on NO production of bone marrow derived MDSCs (FIGS. 8A and 8B). We observed that L-fuc abrogated NO production in all cases. […] We also wanted to look at how L-fuc treatment effected the expression of immunosuppression genes (FIG. 9). We assessed the expression of key MDSC biology-related genes at 24 or 72 hours after in initial L-fuc treatment of the cells. Generally, we observed reductions in ARGI, PARP, and CHOP expression. In contrast we observed upregulation of STAT1. To further assess how L-fuc/fucosylation affects myeloid phenotype, we modulated fucosylation using DMSO (control), 2-fluoro-fucose (2FIF, fucosylation inhibitor), or L-fuc in mouse bone marrow-derived myeloid progenitors treated ±GM/G-CSF (FIG. 10). We profiled changes In M-MDSC vs. PMN-IMDSC, as well as moDC, as we observed immunostimulatory activity. […] Shown are the average values irom 12 mice. We also observed that L-fucose alters TLR profiles of dendritic cells (FIG. 11).

[1] = tested on: MDSCs co-cultured with T cells; test: MDSC immunosuppression of T cell proliferation (Cell Trace Violet) and IFNγ release/production in co-culture; format: cell-based, mouse; details: for T cell proliferation with pretreated splenic MDSCs: FIG. 3F; for IFNγ release / production by T cells with modulated MDSCs: FIG. 3G, FIG. 8B
Method: as §1

In the case of `C[C@H](O)[C@@H](O)[C@@H](O)[C@H](O)C=O` [L-fucose], the NO production (BM-derived MDSCs) is reported as “abrogated”, the “L-fuc-triggered tumor suppression and increases in total itICs” value (SM1 tumors) is reported as “abrogated” and the “fold-change in TIL subsets: MDSCs” value (TUBO (mouse BC); 500 vs. 0 mM L-fuc, TUBO tumors (FIG. 3D)) is reported as 3.1 fold. For the same molecule, the “number of TILs/g tumor” value (TUBO (mouse BC); FIG. 3C) was “increased”, the “fold increase in TIL subsets: CD4 T cells” value (TUBO (mouse BC); following L-fucose administration (FIG. 3D)) was 3.1 fold and the TUBO tumor growth (TUBO (mouse BC)) was “dose dependent decrease”. The TUBO tumor growth (TUBO (mouse BC); listed as L-fuc) was “suppresses”, the “reduction of tumor growth” value (SW1 tumors; CD4+T cell depletion) was “completely abrogated” and the “L-fuc-induced increases in total itICs (incl. NK, DC, CD8+T cells)” value (SW1 tumors; CD4+T cell-depletion) was “blocked”. The “reduction of tumor growth” value (SW1 tumors; CD8+T cell-depleted mice) was over 50%, the “reduction of tumor growth” value (SW1 tumors; control (PBS-injected) mice) was over 50% and the “ARGI, PARP, and CHOP expression” value (BM-myeloid cells) was “reductions”. For the same molecule, the STAT1 expression (BM-myeloid cells) was “upregulation”, the “T cell proliferation with pretreated splenic MDSCs” value [1] was “increased” and the “T cell proliferation with pretreated splenic MDSCs” value ([1]; listed as L-fuc) was “decreases splenic MDSC immunosuppression”. For the same molecule, the “IFNγ release / production by T cells with modulated MDSCs” value [1] was “increased” and the “IFNγ release / production by T cells with modulated MDSCs” value ([1]; listed as L-fuc) was “significantly stimulated; also recorded: decreases splenic MDSC immunosuppression”.
